In US9718837B2, “Nitrogen-containing heterocyclic ring substituted dihydroartemisinin derivatives and use thereof” (Shenyang Pharmaceutical University, priority 2013, dated 2017):
pIC50: −log10 of the molar value. Read-outs that look alike come from different tables or passages of the source.

Key:
[1] = tested on: Human Breast Cancer Cells (MCF-7); assay: Cell growth inhibition by direct cell counting, MCF-7; type: cell-based; settings: read-out: IG50 MCF-7
Protocol: (§1) Cells were taken out carefully from liquid nitrogen (Frozen pipes), and the cell freezing medium was thawed rapidly in water bath at 37° C. in order to rapidly pass through the temperature range of 0 to 5° C. within which the cell is easily damaged. Cell suspension was sucked with pipette gun and put it into centrifugal tubes under sterile condition, then was centrifuged for 3 min at 1300 r/min. The supernatant was gently discarded, and then added with a fresh medium to pipette and mix the cells. Finally, the cells were transferred into culture flasks, and cultured in a carbon dioxide incubator. The medium was changed once after 24 h.
(§2) After resuscitation, the cells were passed for 2-3 generations till they became stable, then they were used for the experiments. Each passage was based on the standard that all cells were spread over the bottoms of culture flasks.
(§3) Cell suspensions of a certain density (5×10^4 cells/mL) were plated at 24-well plate, 2 mL/well. Different concentration of drugs were added thereto, and incubated or some time. Then, cells were counted under the microscope. The ratio of total number of cells in test group to the total number of cells in control group is the cell growth inhibition rate under the concentration condition. The total number of cells in cell suspension, which were treated by drugs, could be counted by blood count board. Inhibition rate was calculated using the formula: […]
(§4) According to cell growth inhibition rate of each concentration of drugs, half inhibitory concentration could be calculated. (IG50 is the drug concentration, when cell growth inhibition rate was 50%.)
(§5) 7) The Results of the Growth Inhibitory Activity of the Compounds on Human Breast Cancer Cells (MCF-7) and Human Multidrug Resistant Breast Cancer Cells (MCF-7/Adr) were Listed in Table 3.

[2] = tested on: Human Multidrug Resistant Breast Cancer Cells (MCF-7/Adr); assay: Cell growth inhibition by direct cell counting, MCF-7/Adr; type: cell-based; settings: read-out: IG50 MCF-7/Adr
Protocol: as §1, §2, §3, §4, §5

[3] = MCF-7/Adr multidrug resistant cells

| Molecule | pIC50 ([1]; MCF-7 cells) | pIC50 [2, 3] | pIC50 [1] | pIC50 [2] |
| --- | --- | --- | --- | --- |
| CC1CCC2C(C)[C@@H](Oc3ccc(/C=C/C(=O)N4CCOCC4)cc3)OC3OC4(C)CCC1C32OO4 (stereo partly drawn) [Example 21, (10S)—O-{4-[3-oxo-3-(morpholin-4-yl)-1-(E)-propen-1-yl]phenyl}-dihydroartemisinin] | 6.62 |  |  |  |
| C[C@H]1[C@@H](Oc2ccc(CN3CCN(C)CC3)cc2)O[C@@H]2O[C@@]3(C)CC[C@H]4[C@H](C)CC[C@@H]1[C@@]24OO3 [Example 12, (10S)—O-[4-((4-methylpiperazin-1-yl)methyl)phenyl]-dihydroartemisinin] | 5.98 | 6.72 |  |  |
| CC1CCC2C(C)[C@@H](Oc3ccc(Cn4ccnn4)cc3)OC3OC4(C)CCC1C32OO4 (stereo partly drawn) [Example 3, (10S)—O-[4-((1,2,3-triazol-1-yl)methyl)phenyl]-dihydroartemisinin] | 5.88 | 6.14 |  |  |
| C[C@H]1[C@@H](Oc2ccc(CC(=O)N3CCN(c4ccccc4)CC3)cc2)O[C@@H]2O[C@@]3(C)CC[C@H]4[C@H](C)CC[C@@H]1[C@@]24OO3 [Example 40, (10S)—O-{4-[2-(4-phenylpiperazin-1-yl)-2-oxoethyl]phenyl}-dihydroartemisinin] |  |  | 5.58 | 7.10 |
| CC1CCC2C(C)[C@@H](Oc3ccc(/C=C/C(=O)N4CCN(Cc5ccccc5)CC4)cc3)OC3OC4(C)CCC1C32OO4 (stereo partly drawn) [Example 29, (10S)—O-{4-[3-oxo-3-(4-benzylpiperazin-1-yl)-1-(E)-propen-1-yl]phenyl}-dihydroartemisinin] | 7.81 |  |  |  |
| CC1CCC2C(C)[C@@H](Oc3ccc(CC(=O)NCc4ccccc4)cc3)OC3OC4(C)CCC1C32OO4 (stereo partly drawn) [Example 48, (10S)—O-[4-[2-(benzylamino)-2-oxoethyl]phenyl]-dihydroartemisinin] | 5.85 |  |  |  |
| CC1CCC2C(C)[C@@H](Oc3cccc(CN4CCN(Cc5ccccc5)CC4)c3)OC3OC4(C)CCC1C32OO4 (stereo partly shown) [Example 19] | 5.92 | 5.96 |  |  |
| COc1ccccc1N1CCN(Cc2ccc(O[C@H]3O[C@@H]4O[C@@]5(C)CC[C@H]6[C@H](C)CC[C@@H]([C@H]3C)[C@@]46OO5)cc2)CC1 [Example 11, (10)-O-[4-[(4-(2-methoxyphenyl)piperazin-1-yl)methyl]phenyl](10S)-dihydroartemisinin] | 6.32 | 6.34 |  |  |
| C[C@H]1[C@@H](Oc2cccc(CN3CCN(c4ccccc4)CC3)c2)O[C@@H]2O[C@@]3(C)CC[C@H]4[C@H](C)CC[C@@H]1[C@@]24OO3 [Example 18, 10-O-[3-[(4-phenylpiperazin-1-yl)methyl]phenyl]-(10S)-dihydroartemisinin] | 6.16 | 6.45 |  |  |
| CC1CCC2C(C)[C@@H](Oc3ccc(/C=C/C(=O)N4CCCCC4)cc3)OC3OC4(C)CCC1C32OO4 (stereo partly drawn) [Example 22, (10S)—O-{4-[3-oxo-3-(piperidin-1-yl)-1-(E)-propen-1-yl]phenyl}-dihydroartemisinin] | 8.22 |  |  |  |
| CC1CCC2C(C)[C@@H](Oc3ccc(CN4CCN(c5ncccn5)CC4)cc3)OC3OC4(C)CCC1C32OO4 (stereo partly drawn) [Example 15, 10-O-[4-[(4-(2-pyrimidinyl)piperazin-1-yl)methyl]phenyl]-(10S)-dihydroartemisinin] | 6.35 | 5.78 |  |  |
| CC1CCC2C(C)[C@@H](Oc3ccc(CC(=O)N4CCN(C5CCCCC5)CC4)cc3)OC3OC4(C)CCC1C32OO4 (stereo partly drawn) [Example 46, (10S)—O-{4-[2-(4-cyclohexylpiperazin-1-yl)-2-oxoethyl]phenyl}-dihydroartemisinin] | 5.95 | 7.01 |  |  |
| (10S)—O-{4-[2-[4-(pyridin-2-yl)piperazin-1-yl]-2-oxoethyl]phenyl}-dihydroartemisinin [Example 44] |  |  | 5.83 | 6.74 |
| CC1CC(C)CN(C(=O)Cc2ccc(O[C@H]3O[C@@H]4O[C@@]5(C)CC[C@H]6[C@H](C)CC[C@@H]([C@H]3C)[C@@]46OO5)cc2)C1 (stereo partly drawn) [Example 38, (10S)—O-{4-[2-(3,5-dimethylpiperidin-1-yl)-2-oxoethyl]phenyl}-dihydroartemisinin] | 6.29 | 6.44 |  |  |
| C[C@H]1[C@@H](Oc2ccc(CN3CCN(c4ccc(F)cc4)CC3)cc2)O[C@@H]2O[C@@]3(C)CC[C@H]4[C@H](C)CC[C@@H]1[C@@]24OO3 [Example 13] | 6.57 | 6.48 |  |  |
| CC1CCC2C(C)[C@@H](Oc3ccc(CC(=O)N4CCOCC4)cc3)OC3OC4(C)CCC1C32OO4 (stereo partly drawn) [Example 34, (10S)—O-{4-[2-(morpholin-4-yl)-2-oxoethyl]phenyl}-dihydroartemisinin] | 5.12 | 6.62 |  |  |

| Molecule | pIC50 ([1]; MCF-7 cells) | pIC50 [2, 3] | pIC50 [1] | pIC50 [2] |
| --- | --- | --- | --- | --- |
| COc1ccccc1N1CCN(C(=O)/C=C/c2ccc(O[C@H]3O[C@@H]4O[C@@]5(C)CC[C@H]6[C@H](C)CC[C@@H]([C@H]3C)[C@@]46OO5)cc2)CC1 [Example 27, (10S)—O-{4-[3-oxo-3-(4-(2-methoxyphenyl)piperazin-1-yl)-1-(E)-propen-1-yl]phenyl}-dihydroartemisinin] | 6.49 |  |  |  |
| CC1CCC2C(C)[C@@H](Oc3ccc(/C=C/C(=O)N4CCN(c5cccc(C(F)(F)F)c5)CC4)cc3)OC3OC4(C)CCC1C32OO4 (stereo partly drawn) [Example 28, (10S)—O-{4-[3-oxo-3-(4-(3-trifluoromethylphenyl)piperazin-1-yl)-1-(E)-propen-1-yl]phenyl}-dihydroartemisinin] | 7.04 |  |  |  |
| COc1ccccc1N1CCN(C(=O)Cc2ccc(O[C@H]3OC4OC5(C)CCC6C(C)CCC(C3C)C46OO5)cc2)CC1 (stereo partly drawn) [Example 41, (10S)—O-{4-[2-[4-(2-methoxyphenyl)piperazin-1-yl]-2-oxoethyl]phenyl}-dihydroartemisinin] | 6.10 | 7.53 |  |  |
| CC1CCC2C(C)[C@@H](Oc3ccc(/C=C/C(=O)N4CCN(c5ccccn5)CC4)cc3)OC3OC4(C)CCC1C32OO4 (stereo partly drawn) [Example 30, (10S)—O-{4-[3-oxo-3-(4-(2-pyridyl)piperazin-1-yl)-1-(E)-propen-1-yl]phenyl}-dihydroartemisinin] | 6.58 |  |  |  |
| CC1CCC2C(C)[C@@H](Oc3ccc(CC(=O)N4CCN(C)CC4c4ccccc4)cc3)OC3OC4(C)CCC1C32OO4 (stereo partly drawn) [Example 43, (10S)—O-{4-[2-(4-methyl-2-phenylpiperazin-1-yl)-2-oxoethyl]phenyl}-dihydroartemisinin] | 5.64 | 5.97 |  |  |
| CC1CCCCN1C(=O)Cc1ccc(O[C@H]2O[C@@H]3O[C@@]4(C)CC[C@H]5[C@H](C)CC[C@@H]([C@H]2C)[C@@]35OO4)cc1 (stereo partly drawn) [Example 37, (10S)—O-{4-[2-(2-methylpiperidin-1-yl)-2-oxoethyl]phenyl}-dihydroartemisinin] |  |  | 5.90 |  |
| C[C@H]1[C@@H](Oc2ccc(Cn3cncn3)cc2)O[C@@H]2O[C@@]3(C)CC[C@H]4[C@H](C)CC[C@@H]1[C@@]24OO3 [Example 4, (10S)—O-[4-((1,2,4-triazol-1-yl)methyl)phenyl]-dihydroartemisinin] | 5.79 | 6.32 |  |  |
| CC1CCC2C(C)[C@@H](Oc3ccc(CC(=O)N4CCN(c5ccc(F)cc5)CC4)cc3)OC3OC4(C)CCC1C32OO4 (stereo partly drawn) [Example 42, (10S)—O-{4-[2-[4-(4-fluorophenyl)piperazin-1-yl]-2-oxoethyl]phenyl}-dihydroartemisinin] | 5.96 | 7.95 |  |  |
| (10S)—O-{4-[2-[4-(pyrimidin-2-yl)piperazin-1-yl]-2-oxoethyl]phenyl}-dihydroartemisinin [Example 45] | 5.83 | 6.96 |  |  |
| CC1CCC2C(C)[C@@H](Oc3ccc(C=CC(=O)Oc4ccc(/C=C/C(=O)N5CCN(c6ncccn6)CC5)cc4)cc3)OC3OC4(C)CCC1C32OO4 (stereo partly drawn) [Example 32, 4-[(10S)-dihydroartemisinin-10-O-yl]phenyl-acrylic acid-4-[3-oxo-3-(4-(2-pyrimidinyl)piperazin-1-yl)-1-(E)-propen-1-yl]phenyl ester] | 6.39 |  |  |  |
| C[C@H]1[C@@H](Oc2ccc(CN3CCN(c4ccccn4)CC3)cc2)O[C@@H]2O[C@@]3(C)CC[C@H]4[C@H](C)CC[C@@H]1[C@@]24OO3 [Example 14, 10-O-[4-[(4-(2-pyridyl)piperazin-1-yl)methyl]phenyl]-(10S)-dihydroartemisinin] | 5.89 | 5.86 |  |  |
| CC1CCC2C(C)[C@@H](Oc3ccc(CC(=O)N4CCC(N5CCCCC5)CC4)cc3)OC3OC4(C)CCC1C32OO4 (stereo partly drawn) [Example 39, (10S)—O-{4-[2-[4-(piperidin-1-yl)piperidin-1-yl]-2-oxoethyl]phenyl}-dihydroartemisinin] | 5.94 | 7.64 |  |  |
| C[C@H]1[C@@H](Oc2ccc(/C=C/C(=O)N3CCC(N4CCCCC4)CC3)cc2)O[C@@H]2O[C@@]3(C)CC[C@H]4[C@H](C)CC[C@@H]1[C@@]24OO3 [Example 23] | 6.23 |  |  |  |
| C[C@H]1[C@@H](Oc2ccc(CC(=O)N3CCCCC3)cc2)O[C@@H]2O[C@@]3(C)CC[C@H]4[C@H](C)CC[C@@H]1[C@@]24OO3 [Example 35, (10S)—O-{4-[2-(piperidin-1-yl)-2-oxoethyl]phenyl}-dihydroartemisinin] | 5.77 | 7.20 |  |  |
| CC1CCN(C(=O)Cc2ccc(O[C@H]3OC4OC5(C)CCC6C(C)CCC(C3C)C46OO5)cc2)CC1 (stereo partly drawn) [Example 36, (10S)—O-{4-[2-(4-methylpiperidin-1-yl)-2-oxoethyl]phenyl}-dihydroartemisinin] | 6.26 | 6.98 |  |  |
